Experimental findings from PubChem BioAssay (NCI) are described below.

Common to all, as to test: growth of human tumour cells (NCI), 48 h
In assay [1] the test system is IGROV1 ovarian.
Assay [2] relates to K-562 leukemia.
In assay [3] the test system is NCI-H23 lung.
Assay [4] has as its system NCI-H522 lung.
The test system of assay [5] is SF-539 CNS.
The test system of assay [6] is SK-MEL-2 melanoma.
The subject of assay [7] is SNB-19 CNS.
The test system of assay [8] is SW-620 colon.
Assay [9] relates to UO-31 renal.
Assay [10] deals with UACC-62 melanoma.

Where “and” joins values, the source holds several entries; their conditions need not be identical. Equal values may be shown once.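 Briefly, cells in 96-well plates were exposed to five compound concentrations for 48 h, and endpoints were estimated by linear interpolation. The concentration for 50% growth inhibition is given as GI50. TGI: concentration producing complete growth inhibition.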

`CC[C@@]1(O)C(=O)OCc2c1cc1n(c2=O)Cc2cc3cc(OC)ccc3nc2-1`: the TGI in [1] is 0.945 µM; in assay [2], over 100 µM; in [4], 0.437 µM and 1.99 µM; in assay [5], 0.0361 µM and 0.0962 µM; in [6] it was 0.529 µM; in [7], 4.19 µM. The TGI in assay [8] came to 4.79 µM. Besides, the GI50 in assay [2] was 0.0571 µM and 0.0344 µM; in assay [3] it was 0.0273 µM; in assay [8] it was 0.0391 µM; in assay [9], 0.249 µM.
As to `OCCCSc1ccccc1SCCCO`, the TGI in assay [1], in [2], in assay [3], in [4], in assay [5] and in [7] was over 100 µM each time. For the same compound, the TGI in [8], in [10] and in assay [9] was over 100 µM in each case.
For `N#CC1C(=N)Cc2ccccc2-c2ccccc21` (stereo not given), the GI50 in assay [2] was 2.71 µM; in assay [3] it was 11.2 µM; in assay [4], 5.72 µM; in [5], 3.92 µM; in assay [6], 12 µM; in assay [7], 9.44 µM. Besides, the GI50 in assay [8] is 4.22 µM; in assay [10] it was 3.83 µM; in [9], 4.06 µM. In addition, the TGI is 89.4 µM in assay [2]; 68.8 µM in [3]; 30.6 µM in assay [4]; 25.2 µM in assay [5]; 28.7 µM in assay [6]; over 100 µM in assay [7]. The TGI in assay [8] worked out at 43.4 µM; in assay [10], 17.1 µM; in assay [9], 31.2 µM.
As to `NC1=NC(c2ccccc2)N=C(Nc2ccccc2)N1` (stereo not given), the GI50 in assay [1] was 39.4 µM; in assay [2], over 100 µM; in assay [3], over 100 µM; in [5] it was over 100 µM; in [6], over 100 µM; in [7] it was over 100 µM. Also, the GI50 in [8] and in assay [10] was over 100 µM in each case. In addition, the TGI in [1], in assay [2], in assay [3], in assay [5], in assay [6] and in assay [7] was over 100 µM in each case. In addition, the TGI in assay [8] and in assay [10] was over 100 µM throughout.
Regarding `O=C(O)c1cc2ccccc2c(N=Nc2c([N+](=O)[O-])cc([N+](=O)[O-])cc2S(=O)(=O)O)c1O`, the TGI in assay [1], in assay [2], in [3], in assay [4], in [6] and in assay [7] was over 100 µM in each case. In addition, the TGI in assay [8], in [10] and in [9] was over 100 µM in each case.
As to `C/C(=N\NC(=O)CC(=O)Nc1ccc(Cl)cc1)c1cc2ccccc2oc1=O`, the TGI in assay [1], in assay [2], in assay [3], in assay [4], in assay [5] and in assay [7] was over 100 µM throughout. The TGI in [8], in assay [10] and in assay [9] was over 100 µM in each case.
As to `COc1ncc(-c2nc3c(n2C(C)C)[C@H](c2ccc(Cl)cc2)N(c2cc(Cl)cn(C)c2=O)C3=O)c(OC)n1`, the GI50 was 22.1 µM in [1]; over 100 µM in assay [3]; 69.2 µM in [4]; 64.5 µM in assay [5]; 46.3 µM in [6]; 61.5 µM in [7]. Besides, the GI50 was 63.7 µM in [8], 5.95 µM in assay [10] and 5.83 µM in [9]. Besides, the TGI in assay [1], in [3], in assay [4], in assay [5], in assay [6] and in assay [7] was over 100 µM throughout. In addition, the TGI in [8] is over 100 µM; in assay [10] it was 28.4 µM; in assay [9] it was 88.8 µM.
Regarding `Cn1cc2c(n1)c(N/N=C/c1ccccc1)nn1nnnc21`, the TGI in assay [1], in assay [2], in [3], in assay [5], in [7] and in [8] was over 100 µM throughout. Moreover, the TGI in [10] and in assay [9] was over 100 µM each time.
For the compound `N/N=C1\c2ccccc2C2/C(=N\N)c3ccccc3C12` (stereo not given), the TGI in assay [1], in [2], in assay [3], in assay [4], in [5] and in [6] was over 100 µM throughout. Moreover, the TGI in [7], in assay [8] and in assay [10] was over 100 µM each time.
Turning to `COc1ccc(NC(=O)C(=O)NNC(=O)c2sc(NNC(C)=O)nc2C)c([N+](=O)[O-])c1`, the TGI in assay [2], in assay [3], in assay [4], in assay [5], in assay [6] and in assay [7] was over 100 µM throughout. Moreover, the TGI in assay [8], in [10] and in [9] was over 100 µM in each case.
On to `Cc1ccc(S(=O)(=O)CNC(=S)CCCC(=S)NCS(=O)(=O)c2ccc(C)cc2)cc1`, for which the TGI in assay [1], in assay [2], in assay [3], in assay [4], in [5] and in assay [7] was over 100 µM throughout. For the same compound, the TGI in [8], in [10] and in assay [9] was over 100 µM each time.
